Results: PubChem BioAssay AID1963979 (Molecular Pharmacology Branch, DTP, NCI, 2024)

Tested on: 361931-004-R-J1-PDC multicell spheroid viability
Test: Anticancer human tumor 361931-004-R-J1-PDC patient-derived colon adenocarcinoma cell line growth inhibition [PI3K]
Details: for IC50: curve of first compound; for viability, T/C: stronger effect = lower value
Method in brief: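 Multi-cell spheroids combine tumor cells with HUVEC and human MSCs, treated with targeted agents alone or with inavolisib, alpelisib, duvelisib or copanlisib. Concentrations fall in half-log steps from at or near clinical Cmax, or from 10 microM where Cmax is unknown; viability read-out.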

[1] = second compound 0.0316 µM, first compound 0.0316 µM
[2] = second compound 0.0316 µM, first compound 0.1 µM
[3] = second compound 0.0316 µM, first compound 0.316 µM
[4] = second compound 0.0316 µM, first compound 1 µM
[5] = second compound 0.0316 µM, first compound 3.16 µM
[6] = second compound 0.0316 µM, first compound 10 µM
[7] = second compound 0.1 µM, first compound 0.0316 µM
[8] = second compound 0.1 µM, first compound 0.1 µM
[9] = second compound 0.1 µM, first compound 0.316 µM
[10] = second compound 0.1 µM, first compound 1 µM
[11] = second compound 0.1 µM, first compound 3.16 µM
[12] = second compound 0.1 µM, first compound 10 µM
[13] = second compound 0.316 µM, first compound 0.0316 µM
[14] = second compound 0.316 µM, first compound 0.1 µM
[15] = second compound 0.316 µM, first compound 0.316 µM
[16] = second compound 0.316 µM, first compound 1 µM
[17] = second compound 0.316 µM, first compound 3.16 µM
[18] = second compound 0.316 µM, first compound 10 µM
[19] = second compound 1 µM, first compound 0.0316 µM
[20] = second compound 1 µM, first compound 0.1 µM
[21] = second compound 1 µM, first compound 0.316 µM
[22] = second compound 1 µM, first compound 1 µM
[23] = second compound 1 µM, first compound 3.16 µM
[24] = second compound 1 µM, first compound 10 µM
[25] = second compound 3.16 µM, first compound 0.0316 µM
[26] = second compound 3.16 µM, first compound 0.1 µM
[27] = second compound 3.16 µM, first compound 0.316 µM
[28] = second compound 3.16 µM, first compound 1 µM
[29] = second compound 3.16 µM, first compound 3.16 µM
[30] = second compound 3.16 µM, first compound 10 µM
[31] = second compound 10 µM, first compound 0.0316 µM
[32] = second compound 10 µM, first compound 0.1 µM
[33] = second compound 10 µM, first compound 0.316 µM
[34] = second compound 10 µM, first compound 1 µM
[35] = second compound 10 µM, first compound 3.16 µM
[36] = second compound 10 µM, first compound 10 µM
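Further: spheroids exposed to agents for seven days before readout.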

Structure (SMILES): CNC(=O)c1ccc(N2C(=S)N(c3ccc(C#N)c(C(F)(F)F)c3)C(=O)C2(C)C)cc1F + CC(Nc1ncnc2nc[nH]c12)c1cc2cccc(Cl)c2c(=O)n1-c1ccccc1
- IC50 (second compound 0.0316 µM): > 10 µM
- IC50 (second compound 0.1 µM): > 10 µM
- IC50 (second compound 0.316 µM): > 10 µM
- IC50 (second compound 1 µM): > 10 µM
- IC50 (second compound 3.16 µM): > 10 µM
- IC50 (second compound 10 µM): > 10 µM
- viability, T/C [1]: 97.8%
- viability, T/C [2]: 103%
- viability, T/C [3]: 97.7%
- viability, T/C [4]: 96.6%
- viability, T/C [5]: 103%
- viability, T/C [6]: 85.7%
- viability, T/C [7]: 110%
- viability, T/C [8]: 102%
- viability, T/C [9]: 97.8%
- viability, T/C [10]: 93.7%
- viability, T/C [11]: 106%
- viability, T/C [12]: 103%
- viability, T/C [13]: 102%
- viability, T/C [14]: 93%
- viability, T/C [15]: 97.9%
- viability, T/C [16]: 105%
- viability, T/C [17]: 101%
- viability, T/C [18]: 97.3%
- viability, T/C [19]: 101%
- viability, T/C [20]: 106%
- viability, T/C [21]: 99.4%
- viability, T/C [22]: 104%
- viability, T/C [23]: 106%
- viability, T/C [24]: 97.2%
- viability, T/C [25]: 101%
- viability, T/C [26]: 109%
- viability, T/C [27]: 97.1%
- viability, T/C [28]: 101%
- viability, T/C [29]: 104%
- viability, T/C [30]: 93.4%
- viability, T/C [31]: 107%
- viability, T/C [32]: 105%
- viability, T/C [33]: 104%
- viability, T/C [34]: 94.2%
- viability, T/C [35]: 112%
- viability, T/C [36]: 96.3%

Structure (SMILES): CC(C)n1nc(-c2ccc3oc(N)nc3c2)c2c(N)ncnc21 + COc1c(OCCCN2CCOCC2)ccc2c3n(c(=NC(=O)c4cnc(N)nc4)nc12)CCN3
- IC50 (second compound 0.00316 µM): > 0.1 µM
- IC50 (second compound 0.01 µM): > 0.1 µM
- IC50 (second compound 0.0316 µM): 0.0783 µM
- IC50 (second compound 0.1 µM): 0.0518 µM
- IC50 (second compound 0.316 µM): 0.00451 µM
- IC50 (second compound 1 µM): < 0.000316 µM
- viability, T/C (second compound 0.00316 µM, first compound 0.000316 µM): 99.9%
- viability, T/C (second compound 0.00316 µM, first compound 0.001 µM): 108%
- viability, T/C (second compound 0.00316 µM, first compound 0.00316 µM): 101%
- viability, T/C (second compound 0.00316 µM, first compound 0.01 µM): 106%
- viability, T/C (second compound 0.00316 µM, first compound 0.0316 µM): 108%
- viability, T/C (second compound 0.00316 µM, first compound 0.1 µM): 77.5%
- viability, T/C (second compound 0.01 µM, first compound 0.000316 µM): 106%
- viability, T/C (second compound 0.01 µM, first compound 0.001 µM): 102%
- viability, T/C (second compound 0.01 µM, first compound 0.00316 µM): 99.3%
- viability, T/C (second compound 0.01 µM, first compound 0.01 µM): 100%
- viability, T/C (second compound 0.01 µM, first compound 0.0316 µM): 99.2%
- viability, T/C (second compound 0.01 µM, first compound 0.1 µM): 57.6%
- viability, T/C (second compound 0.0316 µM, first compound 0.000316 µM): 94.1%
- viability, T/C (second compound 0.0316 µM, first compound 0.001 µM): 98.7%
- viability, T/C (second compound 0.0316 µM, first compound 0.00316 µM): 89.2%
- viability, T/C (second compound 0.0316 µM, first compound 0.01 µM): 94.2%
- viability, T/C [1]: 85.6%
- viability, T/C [2]: 40.4%
- viability, T/C (second compound 0.1 µM, first compound 0.000316 µM): 80.8%
- viability, T/C (second compound 0.1 µM, first compound 0.001 µM): 85.5%
- viability, T/C (second compound 0.1 µM, first compound 0.00316 µM): 79%
- viability, T/C (second compound 0.1 µM, first compound 0.01 µM): 72.8%
- viability, T/C [7]: 62.9%
- viability, T/C [8]: 34.1%
- viability, T/C (second compound 0.316 µM, first compound 0.000316 µM): 64.7%
- viability, T/C (second compound 0.316 µM, first compound 0.001 µM): 56.3%
- viability, T/C (second compound 0.316 µM, first compound 0.00316 µM): 54.2%
- viability, T/C (second compound 0.316 µM, first compound 0.01 µM): 43.9%
- viability, T/C [13]: 35.5%
- viability, T/C [14]: 22.4%
- viability, T/C (second compound 1 µM, first compound 0.000316 µM): 20.8%
- viability, T/C (second compound 1 µM, first compound 0.001 µM): 20.7%
- viability, T/C (second compound 1 µM, first compound 0.00316 µM): 22.3%
- viability, T/C (second compound 1 µM, first compound 0.01 µM): 20.9%
- viability, T/C [19]: 20.2%
- viability, T/C [20]: 10.6%

Structure (SMILES): Cn1nccc1Nc1nccc(-c2ccn(C(CO)c3ccc(Cl)c(F)c3)c(=O)c2)n1 (stereo unspecified) + Cc1nc(NC(=O)N2CCCC2C(N)=O)sc1-c1ccnc(C(C)(C)C(F)(F)F)c1
- IC50 (second compound 0.0316 µM): 9.92 µM
- IC50 (second compound 0.1 µM): 7.97 µM
- IC50 (second compound 0.316 µM): 6.31 µM
- IC50 (second compound 1 µM): 3.14 µM
- IC50 (second compound 3.16 µM): 1.19 µM
- IC50 (second compound 10 µM): 0.213 µM
- viability, T/C [1]: 106%
- viability, T/C [2]: 101%
- viability, T/C [3]: 90.4%
- viability, T/C [4]: 94.5%
- viability, T/C [5]: 85.9%
- viability, T/C [6]: 49.2%
- viability, T/C [7]: 108%
- viability, T/C [8]: 109%
- viability, T/C [9]: 101%
- viability, T/C [10]: 89.4%
- viability, T/C [11]: 78.8%
- viability, T/C [12]: 42.9%
- viability, T/C [13]: 112%
- viability, T/C [14]: 110%
- viability, T/C [15]: 95.5%
- viability, T/C [16]: 86.8%
- viability, T/C [17]: 69.8%
- viability, T/C [18]: 37.3%
- viability, T/C [19]: 99.5%
- viability, T/C [20]: 99.6%
- viability, T/C [21]: 94%
- viability, T/C [22]: 83.2%
- viability, T/C [23]: 49.4%
- viability, T/C [24]: 26.9%
- viability, T/C [25]: 91.4%
- viability, T/C [26]: 87.2%
- viability, T/C [27]: 75.9%
- viability, T/C [28]: 56.6%
- viability, T/C [29]: 24%
- viability, T/C [30]: 10.4%
- viability, T/C [31]: 80%
- viability, T/C [32]: 63.5%
- viability, T/C [33]: 43.6%
- viability, T/C [34]: 19%
- viability, T/C [35]: 4.98%
- viability, T/C [36]: 2.3%
